In ChEMBL document CHEMBL1157282, “Cytotoxic constituents from the stem bark of Dichapetalum gelonioides collected in the Philippines” (J Nat Prod, 2006) one finds EC50, CC50 and EC90 data, which are given here for eleven compounds.

A short description of data set [1]: Cytotoxicity against human BC1 cells. It counts as functional. As to conditions: read-out: ED50 (the source's name).
The subject of a further data set is Lu1. Kind of data set: Cytotoxicity against human Lu1 cells. Type of data set: functional. As to conditions: read-out: ED50 (the source's name).
In another data set the test system is Col2. The data set is described as follows: Cytotoxicity against human Col2 cells. Type of data set: functional. As to conditions: read-out: ED50 (the source's name).
Data set [2] relates to KB. Kind of data set: Cytotoxicity against human KB cells. Type of data set: functional. As to conditions: read-out: ED50 (the source's name).
In data set [3] the test system is KB. The data set is described as follows: Cytotoxicity against drug-resistant human KB cells in presence of vinblastine. It counts as functional. As to conditions: read-out: ED50 (the source's name).
Data set [4] deals with KB. Kind of data set: Cytotoxicity against drug-resistant human KB cells in absence of vinblastine. It counts as functional. As to conditions: read-out: ED50 (the source's name).
The test system of another data set is LNCaP. Kind of data set: Cytotoxicity against human LNCaP cells. It counts as functional. As to conditions: read-out: ED50 (the source's name).
A further data set concerns SW626. Kind of data set: Cytotoxicity against human SW626 cells. As to conditions: read-out: ED50 (the source's name). Type of data set: functional.
Another data set deals with SK-N-SH. The data set is described as follows: Cytotoxicity against human SKNSH cells. It counts as functional. As to conditions: read-out: ED50 (the source's name).
Data set [5] is described as follows: Cytotoxicity against human MEL1 cells. It counts as functional. As to conditions: read-out: ED50 (the source's name).
Data set [6] is described as follows: Cytotoxicity against human MEL2 cells. Type of data set: functional. As to conditions: read-out: ED50 (the source's name).
The subject of another data set is MCF7. Kind of data set: Cytotoxicity against human MCF7 cells. It counts as functional. As to conditions: read-out: ED50 (the source's name).
The nature of data set [7]: Cytotoxicity against HUVEC cells. Type of data set: cell-based. As to conditions: human, read-out: ED50 (the source's name).
The test system of another data set is L1210. Kind of data set: Cytotoxicity against mouse L1210 cells. Type of data set: functional.

The term EC90 denotes the concentration at which the effect reaches the 90% level. High values mean weaker potency, low ones greater potency.

Converted amounts (≈) assume the structure as drawn.

In the case of `C=C1C(=O)C(O)=C[C@@H]2[C@@]3(C)CC[C@](C)(C(=O)OC)C[C@@H]3CC[C@]12C`, the EC50 was found to be 0.6 µg/mL (≈ 1.8 µM) in data set [1]; 1.6 µg/mL (≈ 4.81 µM) with Lu1; 0.8 µg/mL (≈ 2.41 µM) with Col2; 0.7 µg/mL (≈ 2.11 µM) in the data set on KB [2]; 1.7 µg/mL with KB [3]; 1.8 µg/mL (≈ 5.41 µM) in the data set with KB [4]. In addition, the EC50 stood at 0.9 µg/mL (≈ 2.71 µM) in the data set on LNCaP, 1.6 µg/mL (≈ 4.81 µM) with SW626 and 0.8 µg/mL (≈ 2.41 µM) in the data set with SK-N-SH.
In the case of `C[C@H]1C(=O)CC[C@H]2[C@]3(C)CC[C@@]4(C)[C@@H]5CC(C)(C)CC[C@]5(CO)CC[C@]4(C)[C@H]3C[C@@H](O)[C@]12C`, the EC50 (in data set [1]; in the data set with Lu1; in the data set on Col2; in the data set with KB [2]; with KB [3]; in the data set on KB [4]) was over 20 µg/mL in each case. The EC50 in the data set with LNCaP was over 20 µg/mL; in the data set with SW626, over 20 µg/mL; with SK-N-SH, 13 µg/mL (≈ 28.3 µM).
Turning to `C=C1C(=O)C(O)=C[C@@H]2[C@@]3(C)CC[C@](C)(C(=O)O)C[C@@H]3CC[C@]12C`, the EC50 in [1] was determined as 4 µg/mL (≈ 12.6 µM); in the data set on Lu1 it was 3.8 µg/mL (≈ 11.9 µM); with Col2, 2.7 µg/mL (≈ 8.48 µM); in the data set with KB [2], 3.7 µg/mL (≈ 11.6 µM); in the data set with KB [3] it was 4.3 µg/mL; in the data set on KB [4], 5 µg/mL (≈ 15.7 µM). The EC50 in the data set with LNCaP worked out at 3.7 µg/mL (≈ 11.6 µM); in the data set on SW626, 5 µg/mL (≈ 15.7 µM); with SK-N-SH, 9 µg/mL (≈ 28.3 µM).
Regarding `CC1=C(O)C(=O)C[C@@H]2[C@@]3(C)CC[C@](C)(C(=O)O)C[C@@H]3CC[C@]12C`, the EC50 in data set [1] was 12.2 µg/mL (≈ 38.1 µM); with Lu1, over 20 µg/mL; with Col2 it was 11.2 µg/mL (≈ 35 µM); in the data set on KB [2], 16.2 µg/mL (≈ 50.6 µM); in the data set on KB [3], over 20 µg/mL; with KB [4], over 20 µg/mL. Further, the EC50 in the data set with LNCaP turned out to be 10.8 µg/mL (≈ 33.7 µM); in the data set on SW626, 15.8 µg/mL (≈ 49.3 µM); with SK-N-SH, 10.4 µg/mL (≈ 32.5 µM).
Consider `C=C(C)[C@@H]1CC[C@]2(C(=O)O)CC[C@]3(C)[C@H](CC[C@@H]4[C@@]5(C)CC[C@H](O)C(C)(C)[C@@H]5CC[C@]43C)[C@@H]12` [BETULINIC ACID], for which the EC50 (in data set [1]; in the data set with Lu1; in the data set with Col2; in the data set with KB [2]; in the data set on KB [3]; with KB [4]) was over 20 µg/mL in each case. Also, the EC50 is over 20 µg/mL in the data set on LNCaP; over 20 µg/mL in the data set on SW626; over 20 µg/mL with SK-N-SH; 1.1 µg/mL (≈ 2.41 µM) in data set [5]; 2 µg/mL (≈ 4.38 µM) in [6].
In the case of `C/C(=C\[C@H]1C[C@@H]([C@@H]2CC[C@]34C[C@]23C=C[C@@H]2[C@@]3(C)CC=C5C[C@@H](c6ccccc6)OC[C@]5(C)[C@@H]3C[C@@H](O)[C@]24C)C(=O)O1)CO` [DICHAPETALIN A], the EC50 is over 20 µg/mL in data set [1]; 4.1 µg/mL (≈ 7.01 µM) with Lu1; 6.1 µg/mL (≈ 10.4 µM) in the data set on Col2; 3.6 µg/mL (≈ 6.16 µM) with KB [2]; 11.6 µg/mL in the data set with KB [3]; over 20 µg/mL in the data set on KB [4]. The EC50 with LNCaP amounted to 7 µg/mL (≈ 12 µM); with SW626, 0.2 µg/mL (≈ 0.342 µM); with SK-N-SH it was 6.9 µg/mL (≈ 11.8 µM); with MCF7 it was 2.1 µg/mL (≈ 3.59 µM). Further, in [7], the CC50 worked out at 5.5 µg/mL (≈ 9.4 µM). Also, the EC90 with L1210 was under 0.0001 µg/mL.
As for `C/C(=C\[C@H]1C[C@@H]([C@@H]2CC[C@]34C[C@]23[C@H](O)C[C@@H]2[C@@]3(C)CC=C5C[C@@H](c6ccccc6)OC[C@]5(C)[C@@H]3C[C@@H](O)[C@]24C)C(=O)O1)CO` [DICHAPETALIN I], the EC50 in [1] was over 20 µg/mL; in the data set on Lu1, 7.6 µg/mL (≈ 12.6 µM); with Col2, 4.1 µg/mL (≈ 6.8 µM); with KB [2] it was 16.6 µg/mL (≈ 27.5 µM); with KB [3] it was over 20 µg/mL; in the data set with KB [4], over 20 µg/mL. For the same compound, the EC50 in the data set with LNCaP is over 20 µg/mL; in the data set on SW626 it was 0.5 µg/mL (≈ 0.829 µM); in the data set with SK-N-SH, 9.9 µg/mL (≈ 16.4 µM).
For `COc1ccc([C@@H]2CC3=CC[C@]4(C)[C@H]5C[C@@H](O)[C@]67C[C@]6(CC[C@H]7[C@@H]6C[C@H](/C=C(\C)CO)OC6=O)[C@]5(C)[C@H](O)C[C@H]4[C@@]3(C)CO2)cc1` [DICHAPETALIN J], the EC50 is over 20 µg/mL in [1]; 14.5 µg/mL (≈ 22.9 µM) with Lu1; 2.1 µg/mL (≈ 3.32 µM) in the data set on Col2; 16.4 µg/mL (≈ 25.9 µM) in the data set on KB [2]; over 20 µg/mL with KB [3]; over 20 µg/mL in the data set on KB [4]. In addition, the EC50 stood at 16.4 µg/mL (≈ 25.9 µM) with LNCaP, 0.4 µg/mL (≈ 0.632 µM) in the data set on SW626 and 4 µg/mL (≈ 6.32 µM) in the data set on SK-N-SH.
For the compound `COc1ccc([C@@H]2CC3=CC[C@]4(C)[C@H]5C=C[C@]67C[C@]6(CC[C@H]7[C@@H]6C[C@H](/C=C(\C)CO)OC6=O)[C@]5(C)[C@H](O)C[C@H]4[C@@]3(C)CO2)cc1` [DICHAPETALIN K], the EC50 is 1 µg/mL (≈ 1.63 µM) in the data set with Lu1, 2.6 µg/mL (≈ 4.23 µM) in the data set on LNCaP, 3 µg/mL (≈ 4.88 µM) in the data set on SW626 and 1 µg/mL (≈ 1.63 µM) in the data set with MCF7. The CC50 in data set [7] was determined as 2.2 µg/mL (≈ 3.58 µM).
As for `C/C(=C\[C@H]1C[C@@H]([C@@H]2CC[C@]34C[C@]23CC[C@@H]2[C@@]3(C)CC=C5C[C@@H](c6ccccc6)OC[C@]5(C)[C@@H]3C[C@@H](O)[C@]24C)C(=O)O1)CO` [DICHAPETALIN L], the EC50 in the data set on Lu1 came out at 1 µg/mL (≈ 1.7 µM); with LNCaP, 1.1 µg/mL (≈ 1.87 µM); in the data set on SW626, 8.3 µg/mL (≈ 14.1 µM); in the data set on MCF7 it was 2.1 µg/mL (≈ 3.58 µM). The CC50 in [7] came out at 4.2 µg/mL (≈ 7.16 µM).
For `C[C@H]1C(=O)CC[C@H]2[C@]3(C)CC[C@@]4(C)[C@@H]5CC(C)(C)CC[C@]5(C)CC[C@]4(C)[C@H]3C[C@@H](O)[C@]12C` [ZEYLANOL], the EC50 in [1] was over 20 µg/mL; in the data set with Lu1, 10.9 µg/mL (≈ 24.6 µM); with Col2, over 20 µg/mL; in the data set on KB [2] it was over 20 µg/mL; in the data set with KB [3] it was over 20 µg/mL; in the data set with KB [4], over 20 µg/mL. Moreover, the EC50 is over 20 µg/mL in the data set on SW626 and 16.8 µg/mL (≈ 37.9 µM) with SK-N-SH.
